Reference: patent publication US10052415B2, “Tropoelastin for promoting endothelial cell adhesion or migration” (University of Utah Research Foundation, priority 2005, dated 2018)
Ends that are not written are not given here.

What was measured:
Format in all cases: cell-based
[1] = tested on: human aortic endothelial cells (HuAEC); assay: Boyden chamber migration assay, HuAEC; settings: FIG. 3; for migration of HuAECs: 200 ng/ml Tropoelastin, 10 μM peptides, BSA control
Method: Migration of HuAECs to BSA, fibronectin, and recombinant tropoelastin was measured.
We assayed the hexamer VGVAPG (SEQ ID No. 5). This hexameric sequence is repeated multiple times within the full length tropoelastin protein. […] We additionally assayed a 17 residue C-terminal fragment of the tropoelastin protein. This 17 amino acid residue is depicted in SEQ ID NO: 6 (IFPGGACLGKACGRKRK).
(§1) Briefly, 16 h before the assay, 70% confluent 75 cm^2 flasks of human melanoma A2058 cell (ATCC, passage 3-12) or human aortic endothelial cells (HAEC; Cambrex, passage 4-7) were kept in basal media (dMEM+0.1% BSA, or EBM-2+1% FCS, respectively). Cells were lifted with 0.25% Trypsin/1 mM EDTA, diluted in 0.5% BSA (dMEM) and washed 3 times in basal media (dMEM+0.1% BSA) or (EBM-2+0.1% FCS,) and recovered in suspension at working density (2×10^6/ml for A2058 or 1.5×10^6 HAEC) for 1 h at 37° C. (5% CO2). For migration-inhibition assays, the cells were preincubated during the recovery period for 30 minutes in 25 μg/ml anti-integrin antibodies (Chemicon, Temecula, Calif.) or control IgG (Jackson ImmunoResearch, Inc.). All migration assays were performed in triplicate in a 48-well Boyden chamber apparatus (NeuroProbe, Cabin John, Md.). The recovered cells were added to the bottom chambers in a volume of 30 μl. The wells were overlayed with an 8 μm-pore polycarbonate membrane (NeuroProbe, Cabin John, Md.) and coated with 100 μg/ml Rat tail collagen (Trevigen, Gaithersburg, Md.) for A2058 cells or acetylated 1% gelatin from porcine skin (Sigma, St. Louis, Mo.) for HAEC. The apparatus was assembled and stored inverted at 37° C. (5 CO2) for a 2 h adhesion-period. The apparatus was re-inverted and 52 μl of the chemoattractants, 10 mg/ml Fibronectin, 200 ng/ml Tropoelastin, 10 μM elastin-derived peptides; VGVAPG (SEQ ID No. 5), and IFPGGACLGKACGRKRK (SEQ ID No. 6 (Cterm peptide) or 0.1% BSA/dMEM (diluent, random migration control), were added to the upper chambers and the migration was allowed to proceed for 2 h in a humidified incubator at 37° C. (5% CO2). The membranes were then removed, fixed in methanol, stained with a Hema 3 stain set (Fisher Scientific, Pittsburgh, Pa.) and mounted migrated-side down to a 50×75 mm glass slide. Before 90% mounting medium (in xylenes) was applied, the non-migrated cells were removed from the exposed, non-migrated face of the membrane with a moistened swab. Readings represent the number of cells migrating through the membrane (the sum of two high power X 20 fields/well, averaged for each sextuplicate-well set).

[2] = tested on: A2058 human melanoma cells; assay: Boyden chamber migration assay, A2058 cells; settings: FIG. 5
Method: as §1, with “The apparatus was re-inverted and 52 μl of the chemoattractants, 10 mg/ml Fibronectin, 200 ng/ml Tropoelastin, 10 μM elastin-derived peptides; VGVAPG (SEQ ID No. 5), and IFPGGACLGKACGRKRK (SEQ ID No. 6 (Cterm peptide) or 0.1% BSA/dMEM (diluent, random migration control), were added to the upper chambers and the migration was allowed to proceed for 2 h in a humidified incubator at 37° C. (5% CO2). The membranes were then removed, fixed in methanol, stained with a Hema 3 stain set (Fisher Scientific, Pittsburgh, Pa.) and mounted migrated-side down to a 50×75 mm glass slide. Before 90% mounting medium (in xylenes) was applied, the non-migrated cells were removed from the exposed, non-migrated face of the membrane with a moistened swab.” left out

CHO cells = assay: Cell adhesion assay on coated culture plates, CHO cells; settings: culture plates coated with 10 ug/ml protein; 0.1% BSA control
Method: (§2) Cells were plated on culture plates coated with either 0.1% BSA (as a control), 10 ug/ml fibronectin (FN), or 10 ug/ml recombinant tropoelastin, and assayed for adherence to the coated substrate.
(§3) 96-well plates were coated in duplicate overnight at 4° C. with 10 μg/ml collagen, fibronectin, tropoelastin, or 0.1% bovine serum albumin (BSA). Cells were harvested with 0.25% trypsin/1 mM EDTA, washed three times in adhesion buffer (0.5% BSA in basal medium), suspended at a working density of 5×10^5/ml in adhesion buffer, and then allowed to recover for 1 h at 37° C. (5% CO2). For integrin-blocking assays, 25 μg/ml anti-integrin antibodies (Chemicon, Temecula, Calif.) or control IgG (Jackson ImmunoResearch Laboratories, Inc, West Grove, Pa.) were added to the cell suspension during the recovery period. During the cell recovery, the coated 96-well plates were washed twice in dPBS and blocked for 1 h at 25° C. in 5.0% BSA (dPBS). The blocking solution was removed, and the wells were washed twice in dPBS. Recovered cells were added to the coated wells in a volume of 100 μl per well and placed at 37° C. for 30 minutes (5% CO2). […] Readings represent the number of adherent cells/well (average six high powered 100× fields, three taken from each of two separate wells).

[3] = tested on: human embryonic kidney cells (HEK 293); assay: Cell adhesion assay on coated culture plates, HEK 293 cells; settings: culture plates coated with 10 ug/ml protein; 0.1% BSA control
Method: as §2, §3

[4] = tested on: human aortic smooth muscle cells (HuAoSMC); assay: Cell adhesion assay on coated culture plates, HuAoSMC; settings: culture plates coated with 10 ug/ml protein; 0.1% BSA control
Method: as §2, §3

[5] = tested on: human aortic endothelial cells (HuAEC); assay: Cell adhesion assay on coated culture plates, HuAEC; settings: culture plates coated with 10 ug/ml protein; 0.1% BSA control
Method: as §2
(§4) 96-well plates were coated in duplicate overnight at 4° C. with 10 μg/ml collagen, fibronectin, tropoelastin, or 0.1% bovine serum albumin (BSA). Cells were harvested with 0.25% trypsin/1 mM EDTA, washed three times in adhesion buffer (0.5% BSA in basal medium), suspended at a working density of 5×10^5/ml in adhesion buffer, and then allowed to recover for 1 h at 37° C. (5% CO2). For integrin-blocking assays, 25 μg/ml anti-integrin antibodies (Chemicon, Temecula, Calif.) or control IgG (Jackson ImmunoResearch Laboratories, Inc, West Grove, Pa.) were added to the cell suspension during the recovery period. During the cell recovery, the coated 96-well plates were washed twice in dPBS and blocked for 1 h at 25° C. in 5.0% BSA (dPBS). The blocking solution was removed, and the wells were washed twice in dPBS. Recovered cells were added to the coated wells in a volume of 100 μl per well and placed at 37° C. for 30 minutes (5% CO2). Following this incubation, the assay plate was inverted and assay wells were washed twice with 100 μl dPBS to remove non-specifically adhered cells. The wells were then fixed in Zamboni fixative, stained with Gill 1 hematoxylin, and overlayed with 80% glycerol. The assay was imaged at 100× magnification, capturing 3 random fields/well on a Zeiss Axiovert 200 inverted microscope equipped with a Zeiss Axiocam digital camera. Readings represent the number of adherent cells/well (average six high powered 100× fields, three taken from each of two separate wells).

[6] = tested on: A2058 human melanoma cells; assay: Cell adhesion assay, A2058 cells; settings: for adhesion of A2058 cells in comparison to BSA: FIG. 4, coated substrates, peptide 10 μM
Method: A2058 cells were assayed for adherence to substrates coated with BSA (control), fibronectin, tropoelastin, or a bioactive fragment of tropoelastin corresponding to a single repeat of the hexameric sequence VGVAPG (SEQ ID No. 5). In comparison to adherence to BSA, A2058 cells adhered to substrates coated with fibronectin tropoelastin, or a bioactive fragment of tropoelastin.
as §4, with “Cells” for “96-well plates were coated in duplicate overnight at 4° C. with 10 μg/ml collagen, fibronectin, tropoelastin, or 0.1% bovine serum albumin (BSA). Cells”

Substance	level of HuAEC migration relative to comparator [1]	migration of HuAECs [1]	level of A2058 migration compared among tropoelastin and fragments [2]	adhesion of CHO cells to the coated substrate (CHO cells)	adhesion of HEK 293 cells to the coated substrate [3]	adhesion of HuAoSMC to the coated substrate [4]	adhesion of HuAEC to the coated substrate [5]	adhesion of A2058 cells in comparison to BSA [6]	level of A2058 adhesion relative to full length tropoelastin ([6]; 10 μM of a single repeat of the hexameric sequence)
IFPGGACLGKACGRKRK (chemically synthesized bioactive fragment of tropoelastin) [C-terminal fragment]	at least as well as, and possibly better than, the fall length tropoelastin protein	promoted migration of endothelial cells	promoted migration of A2058 cell at comparable levels						
fibronectin [reference compound]				adhered to fibronectin	adhered to fibronectin	adhered to fibronectin	adhered to fibronectin	adhered	
VGVAPG	at least as well as, and possibly better than, the fall length tropoelastin protein	promoted migration of endothelial cells	promoted migration of A2058 cell at comparable levels					promoted adhesion of A2058 cells	at a level similar to 10 μg/ml of full length tropoelastin
